IC50 and melting point data for eight compounds are collected here from article PMC6100082, “Pyridine-Ureas as Potential Anticancer Agents: Synthesis and In Vitro Biological Evaluation” (Molecules : A Journal of Synthetic Chemistry and Natural …, 2018).

Data set [1] relates to breast cancer MCF-7 cell line. Description: In vitro anti-proliferative activity, MTT assay. In kind it is cell-based, human. Particulars: MCF-7, MTT. How it is done:
The in vitro anti-proliferative activity of the newly prepared pyridine-ureas 8a–n was examined against breast cancer MCF-7 cell line. The assay was carried out, as triplicates, utilizing the 3-(4,5-dimethylthiazol-2-yl)-2,5-diphenyltetrazolium bromide (MTT) colorimetric assay as described by T. Mosmann. Doxorubicin and Sorafenib were included in this assay as a reference drug.
MCF-7 (human breast cancer cell line) and WI-38 (human lung fibroblast cell line), were obtained from American Type Culture Collection (Manassas, VA, USA). The cells were propagated in DMEM and supplemented with 10% heat-inactivated FBS (Hyclone), 10 μg/mL of insulin (Manufacturer, Sigma, St. Louis, MO, USA), and 1% penicillin-streptomycin. MTT assay was utilized to examine the in vitro anti-proliferative activity of the newly prepared ureas following the reported procedures. […] The data presented are the mean of at least three separate experiments.
In general terms: Tetrazolium dyes change colour on reduction, which living cells bring about.

Setting [2] is: Homo sapiens, MCF7, 48 h, 48 h of incubation, read-out: IC50 48 h.
The mark [3] stands for this setting: Homo sapiens, MCF7, 72 h, 72 h of incubation, read-out: IC50 72 h.
The mark [4] stands for this setting: 48 h of incubation, read-out: IC50 48 h.

The IC50 is the concentration that gives 50% inhibition. For orientation: melting point means the temperature of the solid-liquid transition.

The structures appear in SMILES notation. Like-named read-outs stand apart in the source and are kept apart here.

With `COc1ccc(-c2ccc(NC(=O)Nc3ccccc3)c(C)n2)cc1` [Compound 8a, 1-(6-(4-Methoxyphenyl)-2-methylpyridin-3-yl)-3-phenylurea], the melting point was 205 to 207 °C. The IC50 in data set [1] (setting [2]) was found to be 3.03 ± 0.22 µM. For the same compound, in data set [1] (setting [3]), the IC50 amounted to 2.83 ± 0.25 µM.
For `COc1ccc(-c2ccc(NC(=O)Nc3cccc(Cl)c3)c(C)n2)cc1` [Compound 8c, 1-(3-Chlorophenyl)-3-(6-(4-methoxyphenyl)-2-methylpyridin-3-yl) Urea], in that order: 212 to 214 °C, 6.4 ± 0.41 µM and 3.52 ± 0.11 µM.
`COc1ccc(-c2ccc(NC(=O)Nc3cccc(OC)c3)c(C)n2)cc1` [Compound 8f, 1-(3-Methoxyphenyl)-3-(6-(4-methoxyphenyl)-2-methylpyridin-3-yl) Urea] came in with a melting point of 227 to 230 °C. In addition, in data set [1] (setting [2]), the IC50 was greater than 50 µM. Further, the IC50 in data set [1] (setting [3]) is greater than 50 µM. The IC50 in data set [1] (setting [4]) was greater than 50 µM.
For `COc1ccc(NC(=O)Nc2ccc(-c3ccc(OC)cc3)nc2C)cc1` [Compound 8g, 1-(4-Methoxyphenyl)-3-(6-(4-methoxyphenyl)-2-methylpyridin-3-yl) Urea], the melting point lay in the range of 241 to 242 °C. Besides, the IC50 in data set [1] (setting [2]) was found to be 4.12 ± 0.27 µM. Moreover, in data set [1] (setting [3]), the IC50 is 27.2 ± 1.98 µM.
As for `COc1ccc(-c2ccc(NC(=O)Nc3ccccc3)c(C)n2)cc1OC` [Compound 8h, 1-(6-(3,4-Dimethoxyphenyl)-2-methylpyridin-3-yl)-3-phenylurea], the melting point is 238 to 239 °C. Moreover, the IC50 in data set [1] (setting [2]) is greater than 50 µM. Moreover, in data set [1] (setting [3]), the IC50 was greater than 50 µM. For the same compound, the 50% inhibitory concentration (IC50) in data set [1] (setting [4]) was greater than 50 µM.
In turn, `COc1ccc(-c2ccc(NC(=O)Nc3ccc(Cl)cc3)c(C)n2)cc1OC` [Compound 8k, 1-(4-Chlorophenyl)-3-(6-(3,4-dimethoxyphenyl)-2-methylpyridin-3-yl) Urea] yielded a melting point of 266 to 267 °C. Besides, in data set [1] (setting [2]), the IC50 amounted to 5.63 ± 0.36 µM. The IC50 in data set [1] (setting [3]) came to 3.45 ± 0.3 µM.
Consider `COc1cccc2c1C(=O)c1c(O)c3c(c(O)c1C2=O)C[C@@](O)(C(=O)CO)C[C@@H]3O[C@H]1C[C@H](N)[C@H](O)[C@H](C)O1` [Dox., Doxorubicin, reference compound], for which the IC50 in data set [1] (setting [2]) was found to be 1.93 ± 0.15 µM; in data set [1] (setting [3]), 1.07 ± 0.07 µM.
The like results for `CNC(=O)c1cc(Oc2ccc(NC(=O)Nc3ccc(Cl)c(C(F)(F)F)c3)cc2)ccn1` [Sorafenib, reference compound] were, in that order, 4.5 ± 0.3 µM and 1.71 ± 0.15 µM.
